The text below walks through data of patent US11344025B2, “Organ preconditioning formulation with mitochondrial elongating agents” (MUSC FOUNDATION FOR RESEARCH DEVELOPMENT, priority 2017, dated 2022).

Entries after “also recorded” stand apart in the source; their conditions may differ. Like-named read-outs stand apart in the source and are kept apart here.

Series [1] can be described thus: Systemic administration of Mdivi-1, adverse effects. The series is classed as in vivo. The text has this: The studies proposed will delineate the role of mito morphology alterations in cardiac-Tx. They will also determine how donor BD impacts IM, and identify an optimum drug delivery strategy for reducing acute post-Tx injury through mito shape manipulation. The opposing roles of mito fission and fusion regulate mito morphology and function. A number of key proteins have been identified which control this process (DRP-1, mito fission protein-1 (Fis-1) and mito fission factor (mff), Mfn1/2, and OPA-1). Given the importance of these proteins for the maintenance of cellular respiration, genetic deletion is most often fatal. However, C57Bl/6 homozygous mito fission factor (Mff)-deficient (Mff^gt−/−) mice are available, as are pharmacological promoters of fusion, M1 and Mdivi-1. […] Using these tools, the inventors will dissect the role of fission and fusion in IRI and rejection in the context of organ Tx. The inventors propose three sub Aims. In SA 2.1, the inventors will determine the impact of mito fission inhibition, and thus fusion promotion, through comparing the effects of IRI and AR of recipients receiving hearts from C57Bl/6 wildtype (wt) or C57Bl/6 homozygous mito fission factor (Mff)-deficient (Mff^gt−/−) donors. In SA 2.2 the inventors will explore the therapeutic potential of donor heart pre-treatment with M1, Mdivi-1, and a combination of both. […]

Series [2] has as its system focal cardiac ischemia. The conditions noted are these: non-transplant setting, previous studies, cited from earlier work.
Series [3] has as its system sensitized allogeneic CD8+ T-cells cocultured with MCECs. As to the kind of experiment: EC/T cell co-culture: cytokine release by alloreactive CD8 T cells. The series is classed as cell-based, mouse. To be noted: cold stored (CIT) and treated ECs. The source says:
EC/T cell co-culture: Using the genetically modified and pharmacological inhibitors the inventors will dissect the impact of EC mito morphology manipulation on T cell activation/co-stimulation. These studies will focus on MCECs given the availability of reagents and ability to generate alloreactive CD8 T cells as previously published.
Allogenic CD8 T cells will be generated. In brief, C57Bl/6 mice will be inoculated with MCECs i.p. and 3 weeks later spleens will be harvested and CD8 T cells isolated using bead isolation techniques. These MCEC alloreactive CD8 T cells will then be co-cultured with MCECs in the normoxic and CIT models.

Series [4] has as its system MCECs. As to the kind of experiment: mitoSOX staining of mito ROS after CIT. To be noted: CIT-induced ROS. Format: cell-based, mouse.
Experimental: Hypoxic cold storage and reperfusion injury culture model: A modified cell culture model that simulates the IR process of organ Tx will be used. […] Cells will then be sealed in a hypoxic chamber filled with nitrogen at 4° C. After CIT, cells will undergo simulated reperfusion by removing the preservation solution and reintroducing fresh DMEM containing 10% FBS.

For the compound `COc1cc(-n2c(S)nc3ccccc3c2=O)c(Cl)cc1Cl` [Mdivi-1], the adverse side effects result in series [1] was “no detectable adverse side effects”. For the same compound, the “cardioprotection from focal IRI” value in series [2] is “provides protection from IRI; also recorded: promote cardioprotective effects”; in series [2] (listed as Mdivi1), “protect both myocardium and microvasculature”.
For the compound `CC(=O)N[C@@H](CS)C(=O)O` [NAC, N-Acetyl Cysteine], in series [3], the “Granzyme B (GrB) production by co-cultured alloreactive CD8 T cells” value is on record as “has no impact; also recorded: no significant effect; also recorded: do not decrease Granzyme-B to the extent of DRP-KD” and the “IFN-gamma production by co-cultured alloreactive CD8 T cells” value is “has no impact; also recorded: no significant effect”. For the same compound, the “mito ROS (mitoSox)” value in series [4] was “completely abrogated ROS”.
